Assay results as given in patent publication US20230364074A1, “Compounds and Compositions for Disrupting Programmed Ribosomal Frameshifting” (YALE UNIVERSITY, priority 2020, published 2023).

Test system: SARS-CoV-2 FSE mutants
Type: cell-based

## CCNCC1CCN(c2c(F)cc3c(=O)c(C(=O)O)cn(CC)c3c2F)C1 (centres unmarked) [merafloxacin, 1-ethyl-7-[3-(ethylaminomethyl)pyrrolidin-1-yl]-6,8-difluoro-4-oxoquinoline-3-carboxylic acid]
  frameshifting inhibition in structure-perturbing FSE mutants: significantly inhibited frameshifting in all variants
  −1 PRF inhibition in naturally occurring FSE variants: inhibited −1 PRF in all variants with similar efficacy
